# Read-outs that look alike come from different tables or passages of the source.
# Legend:
# [1] = cited from earlier work
# P-glycoprotein (Pgp) [2] = experiment: Pgp effect: ratio of Pgp-deficient to wild-type uptake clearance; conditions: for Pgp Effect: ratio of Pgp-deficient Kin to wild-type Kin, CF-1 mice
# [3] = cited from earlier work; remark: listed apart in the source
# [4] = cited from earlier work; remark: listed apart in the source
# [5] = male, CF-1, mouse, in vivo, 1 µM, pH 7.4
# [6] = for Pgp Mutant Kin / logPS(obs): male, pH 7.4; for logPS(obs) / brain uptake clearance: in vivo
# P-glycoprotein (Pgp) [7] = conditions: male, CF-1, mouse, not told, pH 7.4
# [8] = rat, 5-50uM self-inhibition, training set ref Summerfield et al. 2007
# [9] = PAMPA intrinsic permeability, ref Avdeef et al. 2006
# [10] = PAMPA intrinsic permeability, ref Ruell et al. 2004
# [11] = PAMPA intrinsic permeability, ref Avdeef et al. 2005
# [12] = rat, PSC833,GF120918 ref Youdim et al. 2004
# [13] = PAMPA intrinsic permeability, ref Avdeef et al. 2004, Ruell et al. 2004
# [14] = rat, not saturable ref Parepally et al. 2006
compound,measurement,setting,value
CSc1ccc2c(c1)N(CCC1CCCCN1C)c1ccccc1S2 (centres unmarked) [thioridazine],logPo^PAMPA,,1.81
same,logPS(obs),[1]; [8],−1.37 mL/g/s
N[C@@H](Cc1ccc(F)cc1)C(=O)O [p-F-L-phenylalanine],Pgp Effect,P-glycoprotein (Pgp) [2],1.1
COc1cc([C@@H]2c3cc4c(cc3[C@@H](O[C@@H]3O[C@@H]5CO[C@@H](C)O[C@H]5[C@H](O)[C@H]3O)[C@H]3COC(=O)[C@H]23)OCO4)cc(OC)c1O [etoposide],logPo^PAMPA,,−5.22
same,logPS(obs),"[3]; mouse, mdr1a(−/−), footnote x ref Cisternino et al. 2003",−3.91 mL/g/s
CC(C)Cc1ccc(C(C)C(=O)O)cc1 (centres unmarked) [ibuprofen],logPo^PAMPA,"[4]; PAMPA intrinsic permeability, ref Ruell et al. 2004, Ruell et al. 2003",−2.11
CC(C)(C)c1ccc(C(O)CCCN2CCC(C(O)(c3ccccc3)c3ccccc3)CC2)cc1 (centres unmarked) [terfenadine],Wild-Type Kin,[5],126 mL/100g/min
same,Pgp Mutant Kin,"[6]; CF-1, mouse, 1 µM",129 mL/100g/min
same,logPS(obs),"[6]; CF-1, mouse, 1 µM",−1.52 mL/g/s
same,logPo^PAMPA,"[4]; PAMPA intrinsic permeability, ref Ruell et al. 2004, Avdeef et al. 2007",2.63
Cn1c(=O)c2[nH]cnc2n(C)c1=O [theophylline],logPo^PAMPA,[4]; [9],−5.99
same,logPS(obs),[1]; rat ref Liu et al. 2004,−2.90 mL/g/s
same,logPS(obs),[1]; rat ref Murakami et al. 2000,−2.81 mL/g/s
same,logPS(obs),[3]; mouse ref Murakami et al. 2000,−3.26 mL/g/s
OCCN1CCN(CCCN2c3ccccc3Sc3ccc(Cl)cc32)CC1 [perphenazine],logPo^PAMPA,,0.81
same,logPS(obs),[1]; [8],−1.27 mL/g/s
CCCN1C[C@H](C)N([C@H](c2ccc(C(=O)N(CC)CC)cc2)c2cccc(OC)c2)C[C@H]1C [SNC121],logPo^PAMPA,,−1.24
same,logPS(obs),"[3]; mouse, in vivo",−1.44 mL/g/s
same,Pgp effect ratios,P-glycoprotein (Pgp) [2]; compounds with down-step in rank classification for wild-type PS values (Fig. 3),8.6
CCOC(=O)C1(c2ccccc2)CCN(C)CC1 [meperidine],logPo^PAMPA,,0.79
same,logPS(obs),"[3]; mouse, in vivo",−1.28 mL/g/s
O=C(O)c1ccccc1O [salicylic acid],logPo^PAMPA,"[4]; PAMPA intrinsic permeability, ref Ruell et al. 2003",−2.64
CN(C)CCC=C1c2ccccc2CCc2ccccc21 [amitriptyline],Wild-Type Kin,[5],335 mL/100g/min
same,Pgp Mutant Kin,"[6]; CF-1, mouse, 1 µM",408 mL/100g/min
same,logPS(obs),"[6]; CF-1, mouse, 1 µM",−0.66 mL/g/s
same,brain uptake clearance,[6]; mouse,> 255 mL/100 g/min
same,logPo^PAMPA,[4]; [9],1.30
same,logPS(obs),[1]; [8],−1.05 mL/g/s
same,Pgp Effect,P-glycoprotein (Pgp) [2],1.2
CC(C)[C@H](NC(=O)[C@H](CCC(=O)O)NC(=O)[C@H](Cc1ccccc1)NC(=O)[C@@H](C)NC(=O)[C@@H](N)Cc1ccc(O)cc1)C(=O)N[C@H](C(=O)NCC(N)=O)C(C)C [deltorphin II],logPo^PAMPA,,−6.37
same,logPS(obs),"[3]; mouse, in vivo",−4.36 mL/g/s
COc1ccc2c3c1O[C@H]1C[C@@H](O)C=C[C@@]31CCN(C)C2 [galanthamine],logPS(obs),[6]; mouse,−2.46 mL/g/s
same,Pgp Mutant Kin,[6]; mouse,20 mL/100g/min
same,Pgp Effect,P-glycoprotein (Pgp) [7],1.1
same,logPo^PAMPA,,−3.15
CCCN(CCC)S(=O)(=O)c1ccc(C(=O)O)cc1 [probenecid],Wild-Type Kin,[5],0.069 mL/100g/min
same,Pgp Mutant Kin,"[6]; CF-1, mouse, 1 µM",0.098 mL/100g/min
same,logPS(obs),"[6]; CF-1, mouse, 1 µM",−4.79 mL/g/s
same,logPo^PAMPA,[4]; [10],−1.83
same,Pgp Effect,P-glycoprotein (Pgp) [2],1.4
COc1cc2c(c(OC)c1OC)-c1ccc(OC)c(=O)cc1[C@@H](NC(C)=O)CC2 [colchicine],logPo^PAMPA,,−5.40
same,logPS(obs),"[1]; rat, in vivo",−3.24 mL/g/s
COc1ccc([C@@H]2Sc3ccccc3N(CCN(C)C)C(=O)[C@@H]2OC(C)=O)cc1 [diltiazem],logPo^PAMPA,[4]; [11],−1.33
CC(C)c1nc(CN(C)C(=O)N[C@H](C(=O)N[C@@H](Cc2ccccc2)C[C@H](O)[C@H](Cc2ccccc2)NC(=O)OCc2cncs2)C(C)C)cs1 [ritonavir],logPS(obs),[6]; mouse,−2.59 mL/g/s
same,Pgp Mutant Kin,[6]; mouse,15 mL/100g/min
same,logPo^PAMPA,,−1.68
CC(C)(C)NC(=O)[C@@H]1C[C@@H]2CCCC[C@@H]2CN1C[C@@H](O)[C@H](Cc1ccccc1)NC(=O)[C@H](CC(N)=O)NC(=O)c1ccc2ccccc2n1 [saquinavir],Wild-Type Kin,[5],2.9 mL/100g/min
same,Pgp Mutant Kin,"[6]; CF-1, mouse, 1 µM",11 mL/100g/min
same,logPS(obs),"[6]; CF-1, mouse, 1 µM",−2.73 mL/g/s
same,logPo^PAMPA,,−3.69
CC(C)(C)NC(=O)[C@@H]1CN(Cc2cccnc2)CCN1C[C@@H](O)C[C@@H](Cc1ccccc1)C(=O)N[C@H]1c2ccccc2C[C@H]1O [indinavir],Wild-Type Kin,[5],0.52 mL/100g/min
CN[C@H]1CC[C@@H](c2ccc(Cl)c(Cl)c2)c2ccccc21 [sertraline],logPo^PAMPA,,2.10
same,Pgp Effect,P-glycoprotein (Pgp) [2],1.0
O=C(CCCN1CCC(O)(c2ccc(Cl)cc2)CC1)c1ccc(F)cc1 [haloperidol],logPo^PAMPA,[4]; [9],0.05
O=c1c(O)c(-c2ccc(O)c(O)c2)oc2cc(O)cc(O)c12 [quercetin],logPo^PAMPA,,−4.77
same,logPS(obs),[1]; [12],−3.50 mL/g/s
CC[C@]1(O)C[C@@H]2CN(CCc3c([nH]c4ccccc34)[C@@](C(=O)OC)(c3cc4c(cc3OC)N(C)[C@H]3[C@@](O)(C(=O)OC)[C@H](OC(C)=O)[C@]5(CC)C=CCN6CC[C@]43[C@@H]65)C2)C1 [vinblastine],logPo^PAMPA,,−0.42
same,logPS(obs),[1]; rat ref Greig et al. 1990,−3.27 mL/g/s
same,logPS(obs),"[1]; rat, PSC833 ref Cisternino et al. 2003",−3.36 mL/g/s
same,logPS(obs),[3]; mouse ref Murakami et al. 2000,−3.32 mL/g/s
same,logPS(obs),"[3]; mouse, GF120918, footnote v ref Cisternino et al. 2004",−3.25 mL/g/s
same,logPS(obs),"[3]; mouse, mdr1a(−/−)+GF120918 ref Cisternino et al. 2001",−3.12 mL/g/s
CNCCCC12CCC(c3ccccc31)c1ccccc12 [maprotiline],logPo^PAMPA,[4]; [10],1.99
same,logPS(obs),[1]; [8],−1.37 mL/g/s
O=c1[nH]c2ccccc2n1CCCN1CCC(n2c(=O)[nH]c3cc(Cl)ccc32)CC1 [domperidone],logPS(obs),[6]; mouse,−2.79 mL/g/s
same,logPo^PAMPA,,−2.78
CN(C)CCC=C1c2ccccc2COc2ccccc21 [doxepin],logPo^PAMPA,[4]; [10],0.44
same,logPS(obs),[1]; [8],−1.31 mL/g/s
O=C1C[C@@H](c2ccc(O)cc2)Oc2cc(O)cc(O)c21 [naringenin],logPo^PAMPA,,−3.71
same,logPS(obs),[1]; [12],−2.60 mL/g/s
CN(C)CCCN1c2ccccc2Sc2ccc(Cl)cc21 [chlorpromazine],Wild-Type Kin,[5],300 mL/100g/min
same,Pgp Mutant Kin,"[6]; CF-1, mouse, 1 µM",295 mL/100g/min
same,logPS(obs),"[6]; CF-1, mouse, 1 µM",−1.08 mL/g/s
same,brain uptake clearance,[6]; mouse,> 255 mL/100 g/min
same,logPo^PAMPA,[4]; [13],1.62
same,logPS(obs),[1]; [8],−1.20 mL/g/s
same,Pgp Effect,P-glycoprotein (Pgp) [2],1.0
COc1ccc2c(c1)c(CC(=O)O)c(C)n2C(=O)c1ccc(Cl)cc1 [indomethacin],logPo^PAMPA,[4]; [13],−1.65
same,logPS(obs),[1]; [14],−2.19 mL/g/s
O=C1CC2(CCCC2)CC(=O)N1CCCCN1CCN(c2ncccn2)CC1 [buspirone],Wild-Type Kin,[5],325 mL/100g/min
same,Pgp Mutant Kin,"[6]; CF-1, mouse, 1 µM",341 mL/100g/min
same,Pgp Effect,P-glycoprotein (Pgp) [2],1.0
CNS(=O)(=O)Cc1ccc2[nH]cc(CCN(C)C)c2c1 [sumatriptan],logPo^PAMPA,"[4]; PAMPA intrinsic permeability, ref Avdeef 2005",−4.18
same,logPS(obs),[1]; [8],−4.60 mL/g/s
N[C@H](Cc1ccc(F)cc1)C(=O)O [p-F-D-phenylalanine],Pgp Effect,P-glycoprotein (Pgp) [2],1.1
CC(C(=O)O)c1ccc(-c2ccccc2)c(F)c1 (centres unmarked) [flurbiprofen],logPo^PAMPA,[4]; [10],−1.78
same,logPS(obs),[1]; [14],−1.80 mL/g/s
N[C@@H](Cc1ccccc1)C(=O)O [L-phenylalanine],logPo^PAMPA,,−5.36
same,logPS(obs),"[1]; rat, Kd (nonsaturable component) ref Momma et al. 1987",−3.74 mL/g/s
CN/C(=N/CCSCc1nc[nH]c1C)NC#N [cimetidine],logPo^PAMPA,[4]; [11],−6.20
same,logPS(obs),[1]; rat ref Murakami et al. 2000,−4.05 mL/g/s
same,logPS(obs),[3]; mouse ref Murakami et al. 2000,−4.10 mL/g/s
CN1CCN(C2=Nc3cc(Cl)ccc3Nc3ccccc32)CC1 [clozapine],Wild-Type Kin,[5],118 mL/100g/min
same,Pgp Mutant Kin,"[6]; CF-1, mouse, 1 µM",90 mL/100g/min
same,logPS(obs),"[6]; CF-1, mouse, 1 µM",−1.73 mL/g/s
same,logPo^PAMPA,,−0.39
CC(=O)CC(c1ccccc1)c1c(O)c2ccccc2oc1=O (centres unmarked) [warfarin],logPS(obs),"[1]; rat, in vivo",−1.99 mL/g/s
same,logPS(obs),"[3]; mouse, in vivo",−2.10 mL/g/s
Oc1ccc2c3c1O[C@H]1c4[nH]c5ccccc5c4C[C@@]4(O)[C@@H](C2)N(CC2CC2)CC[C@]314 [naltrindole],logPo^PAMPA,,−0.94
same,logPS(obs),"[3]; mouse, in vivo",−1.98 mL/g/s
OCCOCCN1CCN(C2=Nc3ccccc3Sc3ccccc32)CC1 [quetiapine],logPo^PAMPA,,−1.85
same,logPS(obs),[1]; [8],−1.33 mL/g/s
COc1ccc(Cl)cc1C(=O)NCCc1ccc(S(=O)(=O)NC(=O)NC2CCCCC2)cc1 [glibenclamide],logPo^PAMPA,"[4]; PAMPA intrinsic permeability, ref Bendels et al. 2006",−2.54
same,logPS(obs),[1]; rat ref Murakami et al. 2000,−2.77 mL/g/s
same,logPS(obs),[3]; mouse ref Murakami et al. 2000,−3.27 mL/g/s
COc1cc2nc(N3CCN(C(=O)c4ccco4)CC3)nc(N)c2cc1OC [prazosin],logPo^PAMPA,[4]; [10],−2.58
Cc1cc(=O)n(-c2ccccc2)n1C [antipyrine],logPo^PAMPA,[4]; PAMPA,−5.69
CCC(=O)C(CC(C)N(C)C)(c1ccccc1)c1ccccc1 (centres unmarked) [methadone],logPo^PAMPA,,0.08
CCC12CCN(CC3(O)CC3)C(Cc3ccc(O)cc31)C2(C)C (centres unmarked) [bremazocine],logPo^PAMPA,,−1.49
same,logPS(obs),"[3]; mouse, in vivo",−1.89 mL/g/s
NC(=O)N1c2ccccc2C=Cc2ccccc21 [carbamazepine],Wild-Type Kin,[5],173 mL/100g/min
same,Pgp Mutant Kin,"[6]; CF-1, mouse, 1 µM",184 mL/100g/min
same,logPS(obs),"[6]; CF-1, mouse, 1 µM",−1.26 mL/g/s
same,logPo^PAMPA,,−3.73
same,logPS(obs),[1]; [8],−1.75 mL/g/s
same,Pgp Effect,P-glycoprotein (Pgp) [2],1.1
